Reference: US20250151724A1, “Liquid Soil Treatments Containing Choline” (Harrell's, LLC, priority 2023, published 2025)

Test system: creeping bentgrass
Experiment: Experiment No. 1: growth chamber pot trial, foliar GB and choline under heat and mild drought stress
Assay type: in vivo
Settings: for increase of chlorophyll content: day 56, vs control; for Root Viability: TTC method
Protocol: A growth chamber pot trial was conducted as follows. […] The choline used in this study was supplied in the form of choline chloride from Sigma-Aldrich, Inc. (St. Louis, MO). […] These conditions simulated summer putting green stress. The treatments were as follows: • 1. […] GB at 0.5 oz./1,000 ft^2 every 14 days. • 3. GB at 1.0 oz./1,000 ft^2 every 14 days. • 4. […] The rate and source of fertilization for treatments #2-7 was the same as treatment #1 (fertilized control), so all seven treatments received identical fertility input. […] The term “low rate” is used in this description of Experiment No. 1 to refer to 0.5 oz./1,000 ft^2 treatments, while the term “high rate” is used to refer to 1.0 oz./1,000 ft^2 treatments. […] Photochemical efficiency (PE). Photochemical Efficiency was measured with a chlorophyll fluorometer (OS-50II, Opti-Sciences, Inc., Hudson, NH) biweekly based on the Fv/Fm, which is the ratio of variable chlorophyll fluorescence (Fv) to maximum chlorophyll fluorescence (Fm). […] Chlorophyll content. After clipping yields were weighed, leaf tissues were ground into powder, and chlorophyll was extracted in pure acetone content for 72 hours, and the absorbance was measured using a spectrophotometer. • e. Leaf carotenoids were extracted in the same sample as for chlorophyll content and carotenoids were measured using a spectrophotometer (Zhang et al., 2005). • f. Leaf proline content. […] After centrifuging, the supernatant was collected, and proline was analyzed according to Wu et al., 2017. • g. Root viability. […] Root growth characteristics. At the end of trial, roots from each pot were washed and cleaned. Roots were scanned using WinRHIZOTM technology (Regent Instruments Inc., Quebec, Canada), and root length, root surface area, root diameter, and root volume were calculated. (Zhang et al., 2017). • i. Root biomass of each pot was determined at the end of the trial. Roots were dried at 65° C. for 72 hours before being weighed.

Structure (SMILES): C[N+](C)(C)CCO.[Cl-] [Choline, choline chloride]
- increase of chlorophyll content (0.5 oz): 32.4%
- Clippings dry wt (0.5 oz/1000 ft^2, Total): 0.691bc g/pot
- Carotenoids (0.5 oz/1000 ft^2, day 0): 1.32a mg/g FW
- Chlorophyll (0.5 oz/1000 ft^2, day 0): 3.50a mg/g FW
- Leaf color (1-9, 9 = dark green) (0.5 oz/1000 ft^2, day 0): 7.5a
- PE (Fv/Fm) (0.5 oz/1000 ft^2, day 0): 0.763a
- Proline (0.5 oz/1000 ft^2, day 0): 20.1a mg/g FW
- Carotenoids (0.5 oz/1000 ft^2, day 14): 1.32a mg/g FW
- Chlorophyll (0.5 oz/1000 ft^2, day 14): 3.51a mg/g FW
- Clippings dry wt (0.5 oz/1000 ft^2, day 14): 0.149b g/pot
- Leaf color (1-9, 9 = dark green) (0.5 oz/1000 ft^2, day 14): 7.3abc
- PE (Fv/Fm) (0.5 oz/1000 ft^2, day 14): 0.751a
- Proline (0.5 oz/1000 ft^2, day 14): 46.1a mg/g FW
- Carotenoids (0.5 oz/1000 ft^2, day 28): 1.18ab mg/g FW
- Chlorophyll (0.5 oz/1000 ft^2, day 28): 3.09ab mg/g FW
- Clippings dry wt (0.5 oz/1000 ft^2, day 28): 0.151b g/pot
- Leaf color (1-9, 9 = dark green) (0.5 oz/1000 ft^2, day 28): 6.9a
- PE (Fv/Fm) (0.5 oz/1000 ft^2, day 28): 0.676ab
- Proline (0.5 oz/1000 ft^2, day 28): 24.3b mg/g FW
- Carotenoids (0.5 oz/1000 ft^2, day 42): 1.12a mg/g FW
- Chlorophyll (0.5 oz/1000 ft^2, day 42): 2.76ab mg/g FW
- Clippings dry wt (0.5 oz/1000 ft^2, day 42): 0.159a g/pot
- Leaf color (1-9, 9 = dark green) (0.5 oz/1000 ft^2, day 42): 7.1a
- PE (Fv/Fm) (0.5 oz/1000 ft^2, day 42): 0.631b
- Proline (0.5 oz/1000 ft^2, day 42): 30.2c mg/g FW
- Carotenoids (0.5 oz/1000 ft^2, day 56): 1.12a mg/g FW
- Chlorophyll (0.5 oz/1000 ft^2, day 56): 2.98a mg/g FW
- Clippings dry wt (0.5 oz/1000 ft^2, day 56): 0.233ab g/pot
- Leaf color (1-9, 9 = dark green) (0.5 oz/1000 ft^2, day 56): 7.0a
- PE (Fv/Fm) (0.5 oz/1000 ft^2, day 56): 0.649a
- Proline (0.5 oz/1000 ft^2, day 56): 79.6a mg/g FW
- Root Biomass (0.5 oz/1000 ft^2, end of trial): 1.72ab g/pot
- Root Diameter (0.5 oz/1000 ft^2, end of trial): 0.192a mm
- Root Length (0.5 oz/1000 ft^2, end of trial): 39.7ab mm/cm^3
- Root SA (surface area) (0.5 oz/1000 ft^2, end of trial): 2.40ab cm^3/cm^3
- Root Volume (0.5 oz/1000 ft^2, end of trial): 11.6a dm^3/cm^3
- Root Viability (0.5 oz/1000 ft^2, end of trial): 0.739bcd A490/g FW
- increase of chlorophyll content (1.0 oz): 22.2%
- Clippings dry wt (1.0 oz/1000 ft^2, Total): 0.842ab g/pot
- Carotenoids (1.0 oz/1000 ft^2, day 0): 1.31a mg/g FW
- Chlorophyll (1.0 oz/1000 ft^2, day 0): 3.46a mg/g FW
- Leaf color (1-9, 9 = dark green) (1.0 oz/1000 ft^2, day 0): 7.5a
- PE (Fv/Fm) (1.0 oz/1000 ft^2, day 0): 0.777a
- Proline (1.0 oz/1000 ft^2, day 0): 19.8a mg/g FW
- Carotenoids (1.0 oz/1000 ft^2, day 14): 1.33a mg/g FW
- Chlorophyll (1.0 oz/1000 ft^2, day 14): 3.51a mg/g FW
- Clippings dry wt (1.0 oz/1000 ft^2, day 14): 0.187ab g/pot
- Leaf color (1-9, 9 = dark green) (1.0 oz/1000 ft^2, day 14): 7.5a
- PE (Fv/Fm) (1.0 oz/1000 ft^2, day 14): 0.738ab
- Proline (1.0 oz/1000 ft^2, day 14): 43.5ab mg/g FW
- Carotenoids (1.0 oz/1000 ft^2, day 28): 1.23a mg/g FW
- Chlorophyll (1.0 oz/1000 ft^2, day 28): 3.31a mg/g FW
- Clippings dry wt (1.0 oz/1000 ft^2, day 28): 0.183ab g/pot
- Leaf color (1-9, 9 = dark green) (1.0 oz/1000 ft^2, day 28): 7.3a
- PE (Fv/Fm) (1.0 oz/1000 ft^2, day 28): 0.718ab
- Proline (1.0 oz/1000 ft^2, day 28): 24.6b mg/g FW
- Carotenoids (1.0 oz/1000 ft^2, day 42): 1.17a mg/g FW
- Chlorophyll (1.0 oz/1000 ft^2, day 42): 2.93a mg/g FW
- Clippings dry wt (1.0 oz/1000 ft^2, day 42): 0.223a g/pot
- Leaf color (1-9, 9 = dark green) (1.0 oz/1000 ft^2, day 42): 7.1a
- PE (Fv/Fm) (1.0 oz/1000 ft^2, day 42): 0.683ab
- Proline (1.0 oz/1000 ft^2, day 42): 43.8ab mg/g FW
- Carotenoids (1.0 oz/1000 ft^2, day 56): 1.06a mg/g FW
- Chlorophyll (1.0 oz/1000 ft^2, day 56): 2.75ab mg/g FW
- Clippings dry wt (1.0 oz/1000 ft^2, day 56): 0.249a g/pot
- Leaf color (1-9, 9 = dark green) (1.0 oz/1000 ft^2, day 56): 7.0a
- PE (Fv/Fm) (1.0 oz/1000 ft^2, day 56): 0.664a
- Proline (1.0 oz/1000 ft^2, day 56): 67.6a mg/g FW
- Root Biomass (1 oz/1000 ft^2, end of trial): 1.57ab g/pot
- Root Diameter (1 oz/1000 ft^2, end of trial): 0.192a mm
- Root Length (1 oz/1000 ft^2, end of trial): 39.0ab mm/cm^3
- Root SA (surface area) (1 oz/1000 ft^2, end of trial): 2.32ab cm^3/cm^3
- Root Volume (1 oz/1000 ft^2, end of trial): 11.0a dm^3/cm^3
- Root Viability (1 oz/1000 ft^2, end of trial): 1.019abc A490/g FW
